Tests used:
Conditions in all cases: 72 h
[1] = system: Calu-3; test: drug sensitivity score (DSS) for viability; higher = more toxic; extreme values may be limits of the assay
[2] = system: Vero E6; test: as above
[3] = system: U2OS; test: as above
[4] = system: HepG2; test: as above
[5] = system: Caco-2; test: as above
[6] = system: Calu-3; test: cell viability relative to DMSO; higher = less toxic
[7] = system: Vero E6; test: as above
[8] = system: U2OS; test: as above
[9] = system: HepG2; test: as above
[10] = system: Caco-2; test: as above
[11] = system: Calu-3; test: relative viability EC50 (midpoint between 100% and the lowest measured viability); higher = less toxic
[12] = system: Vero E6; test: as above
[13] = system: U2OS; test: as above
[14] = system: HepG2; test: as above
[15] = system: Caco-2; test: as above

`Cc1cc(/C=C2\SC(=O)N(c3ccccc3)C2=O)c(C)n1-c1cccnc1` [iCRT-14] gave a drug sensitivity score [1] of 0, a drug sensitivity score [2] of 0 and a drug sensitivity score [3] of 0. It also gave a drug sensitivity score [4] of 1.4, a drug sensitivity score [5] of 0.1 and a cell viability ([6]; 1 nM) of 101%. For the same compound, the cell viability ([6]; 10 nM) was 88.7%, the cell viability ([6]; 100 nM) was 100% and the cell viability ([6]; 1000 nM) was 104%. The cell viability ([6]; 10000 nM) was 107%, the cell viability ([7]; 1 nM) was 105% and the cell viability ([7]; 10 nM) was 102%. For the same compound, the cell viability ([7]; 100 nM) was 96.8%, the cell viability ([7]; 1000 nM) was 99.8% and the cell viability ([7]; 10000 nM) was 89.8%. For the same compound, the cell viability ([8]; 1 nM) was 97%, the cell viability ([8]; 10 nM) was 96.8% and the cell viability ([8]; 100 nM) was 102%. It also gave a cell viability ([8]; 1000 nM) of 95.7%, a cell viability ([8]; 10000 nM) of 96.4% and a cell viability ([9]; 1 nM) of 96.7%. It also gave a cell viability ([9]; 10 nM) of 102%, a cell viability ([9]; 100 nM) of 93.4% and a cell viability ([9]; 1000 nM) of 94.3%. The cell viability ([9]; 10000 nM) was 76.2%, the cell viability ([10]; 1 nM) was 107% and the cell viability ([10]; 10 nM) was 107%. It also gave a cell viability ([10]; 100 nM) of 102%, a cell viability ([10]; 1000 nM) of 96.8% and a cell viability ([10]; 10000 nM) of 89%. For the same compound, the “relative viability EC50” value [11] was over 10 µM, the “relative viability EC50” value [12] was over 10 µM and the “relative viability EC50” value [13] was over 10 µM. For the same compound, the “relative viability EC50” value [14] was over 10 µM and the “relative viability EC50” value [15] was over 10 µM.

Work on `N=C(N)NCCC[C@@H](N)C(=O)N[C@@H](CCCNC(=N)N)C(=O)N1CCC[C@H]1C(=O)N1C[C@H](O)C[C@H]1C(=O)NCC(=O)N[C@@H](Cc1cccs1)C(=O)N[C@@H](CO)C(=O)N1Cc2ccccc2C[C@@H]1C(=O)N1[C@H](C(=O)N[C@@H](CCCNC(=N)N)C(=O)O)C[C@@H]2CCCC[C@@H]21` [icatibant-acetate] yielded a drug sensitivity score [1] of 0, a drug sensitivity score [2] of 0 and a drug sensitivity score [3] of 0. It also gave a drug sensitivity score [4] of 0, a drug sensitivity score [5] of 0 and a cell viability ([6]; 1 nM) of 107%. It also gave a cell viability ([6]; 10 nM) of 92.8%, a cell viability ([6]; 100 nM) of 98% and a cell viability ([6]; 1000 nM) of 98.6%. For the same compound, the cell viability ([6]; 10000 nM) was 104%, the cell viability ([7]; 1 nM) was 99% and the cell viability ([7]; 10 nM) was 97.9%. It also gave a cell viability ([7]; 100 nM) of 101%, a cell viability ([7]; 1000 nM) of 101% and a cell viability ([7]; 10000 nM) of 101%. The cell viability ([8]; 1 nM) was 102%, the cell viability ([8]; 10 nM) was 98.8% and the cell viability ([8]; 100 nM) was 103%. For the same compound, the cell viability ([8]; 1000 nM) was 98.1%, the cell viability ([8]; 10000 nM) was 101% and the cell viability ([9]; 1 nM) was 91%. For the same compound, the cell viability ([9]; 10 nM) was 93.3%, the cell viability ([9]; 100 nM) was 84.7% and the cell viability ([9]; 1000 nM) was 102%. It also gave a cell viability ([9]; 10000 nM) of 102%, a cell viability ([10]; 1 nM) of 96% and a cell viability ([10]; 10 nM) of 100%. The cell viability ([10]; 100 nM) was 90%, the cell viability ([10]; 1000 nM) was 91.4% and the cell viability ([10]; 10000 nM) was 103%. The “relative viability EC50” value [11] was over 10 µM, the “relative viability EC50” value [12] was over 10 µM and the “relative viability EC50” value [13] was over 10 µM. For the same compound, the “relative viability EC50” value [14] was over 10 µM and the “relative viability EC50” value [15] was over 10 µM.

`C[C@@]12CC[C@@H]3[C@@](CC[C@H]4[C@@]3(C)CCC[C@@]4(C)C(=O)O)(CC1=O)C2` [isosteviol] showed a drug sensitivity score [1] of 0, a drug sensitivity score [2] of 0 and a drug sensitivity score [3] of 0. The drug sensitivity score [4] was 0, the drug sensitivity score [5] was 0 and the cell viability ([6]; 1 nM) was 103%. For the same compound, the cell viability ([6]; 10 nM) was 105%, the cell viability ([6]; 100 nM) was 112% and the cell viability ([6]; 1000 nM) was 110%. It also gave a cell viability ([6]; 10000 nM) of 94.5%, a cell viability ([7]; 1 nM) of 97.8% and a cell viability ([7]; 10 nM) of 99.6%. For the same compound, the cell viability ([7]; 100 nM) was 98.5%, the cell viability ([7]; 1000 nM) was 97.5% and the cell viability ([7]; 10000 nM) was 106%. The cell viability ([8]; 1 nM) was 101%, the cell viability ([8]; 10 nM) was 101% and the cell viability ([8]; 100 nM) was 96.8%. The cell viability ([8]; 1000 nM) was 96.5%, the cell viability ([8]; 10000 nM) was 98.1% and the cell viability ([9]; 1 nM) was 94.4%. It also gave a cell viability ([9]; 10 nM) of 91.4%, a cell viability ([9]; 100 nM) of 100% and a cell viability ([9]; 1000 nM) of 99.5%. The cell viability ([9]; 10000 nM) was 107%, the cell viability ([10]; 1 nM) was 87.5% and the cell viability ([10]; 10 nM) was 99.9%. For the same compound, the cell viability ([10]; 100 nM) was 89.2%, the cell viability ([10]; 1000 nM) was 95.2% and the cell viability ([10]; 10000 nM) was 109%. For the same compound, the “relative viability EC50” value [11] was over 10 µM, the “relative viability EC50” value [12] was over 10 µM and the “relative viability EC50” value [13] was over 10 µM. The “relative viability EC50” value [14] was over 10 µM and the “relative viability EC50” value [15] was over 10 µM.

With `N#CCCCSC(=N)N` [kevetrin] the drug sensitivity score [1] was 0, the drug sensitivity score [2] was 0 and the drug sensitivity score [3] was 0. It also gave a drug sensitivity score [4] of 0, a drug sensitivity score [5] of 0 and a cell viability ([6]; 1 nM) of 108%. For the same compound, the cell viability ([6]; 10 nM) was 90.9%, the cell viability ([6]; 100 nM) was 92.8% and the cell viability ([6]; 1000 nM) was 105%. It also gave a cell viability ([6]; 10000 nM) of 93.1%, a cell viability ([7]; 1 nM) of 96.6% and a cell viability ([7]; 10 nM) of 98.4%. The cell viability ([7]; 100 nM) was 92.6%, the cell viability ([7]; 1000 nM) was 101% and the cell viability ([7]; 10000 nM) was 98.9%. For the same compound, the cell viability ([8]; 1 nM) was 97.9%, the cell viability ([8]; 10 nM) was 102% and the cell viability ([8]; 100 nM) was 96.3%. It also gave a cell viability ([8]; 1000 nM) of 97.5%, a cell viability ([8]; 10000 nM) of 96.3% and a cell viability ([9]; 1 nM) of 107%. It also gave a cell viability ([9]; 10 nM) of 97.4%, a cell viability ([9]; 100 nM) of 101% and a cell viability ([9]; 1000 nM) of 93.6%. For the same compound, the cell viability ([9]; 10000 nM) was 101%, the cell viability ([10]; 1 nM) was 92% and the cell viability ([10]; 10 nM) was 99.3%. For the same compound, the cell viability ([10]; 100 nM) was 96.6%, the cell viability ([10]; 1000 nM) was 99.8% and the cell viability ([10]; 10000 nM) was 99.7%. The “relative viability EC50” value [11] was over 10 µM, the “relative viability EC50” value [12] was over 10 µM and the “relative viability EC50” value [13] was over 10 µM. For the same compound, the “relative viability EC50” value [14] was over 10 µM and the “relative viability EC50” value [15] was over 10 µM.

With `CC(=O)O[C@H]1C[C@H](O[C@H]2[C@@H](O)C[C@H](O[C@H]3[C@@H](O)C[C@H](O[C@H]4CC[C@@]5(C)[C@H](CC[C@@H]6[C@@H]5C[C@@H](O)[C@]5(C)[C@@H](C7=CC(=O)OC7)CC[C@]65O)C4)O[C@@H]3C)O[C@@H]2C)O[C@H](C)[C@H]1O[C@@H]1O[C@H](CO)[C@@H](O)[C@H](O)[C@H]1O` [lanatoside-C] the drug sensitivity score [1] was 15.2, the drug sensitivity score [2] was 27.8 and the drug sensitivity score [3] was 19.5. It also gave a drug sensitivity score [4] of 15, a drug sensitivity score [5] of 19.5 and a cell viability ([6]; 1 nM) of 107%. For the same compound, the cell viability ([6]; 10 nM) was 95.1%, the cell viability ([6]; 100 nM) was 80.7% and the cell viability ([6]; 1000 nM) was 30.6%. It also gave a cell viability ([6]; 10000 nM) of 18.7%, a cell viability ([7]; 1 nM) of 92.5% and a cell viability ([7]; 10 nM) of 92%. It also gave a cell viability ([7]; 100 nM) of 23.4%, a cell viability ([7]; 1000 nM) of 0.8% and a cell viability ([7]; 10000 nM) of 0.9%. For the same compound, the cell viability ([8]; 1 nM) was 101%, the cell viability ([8]; 10 nM) was 97.3% and the cell viability ([8]; 100 nM) was 87.4%. For the same compound, the cell viability ([8]; 1000 nM) was 3.4%, the cell viability ([8]; 10000 nM) was 6.7% and the cell viability ([9]; 1 nM) was 99.4%. It also gave a cell viability ([9]; 10 nM) of 97.7%, a cell viability ([9]; 100 nM) of 83.3% and a cell viability ([9]; 1000 nM) of 30.9%. For the same compound, the cell viability ([9]; 10000 nM) was 5.9%, the cell viability ([10]; 1 nM) was 102% and the cell viability ([10]; 10 nM) was 99%. The cell viability ([10]; 100 nM) was 66.4%, the cell viability ([10]; 1000 nM) was 17.6% and the cell viability ([10]; 10000 nM) was 18.4%. The “relative viability EC50” value [11] was 0.248 µM, the “relative viability EC50” value [12] was 0.0458 µM and the “relative viability EC50” value [13] was 0.211 µM. The “relative viability EC50” value [14] was 0.396 µM and the “relative viability EC50” value [15] was 0.116 µM.

`CC1(C)OC[C@@H](COC(=O)CCc2ccc(OC[C@@H](O)CNCCNC(=O)N3CCOCC3)cc2)O1` [landiolol] was tested, and the drug sensitivity score [1] was 0, the drug sensitivity score [2] was 0 and the drug sensitivity score [3] was 0. The drug sensitivity score [4] was 0, the drug sensitivity score [5] was 0 and the cell viability ([6]; 1 nM) was 105%. For the same compound, the cell viability ([6]; 10 nM) was 97.7%, the cell viability ([6]; 100 nM) was 97.2% and the cell viability ([6]; 1000 nM) was 104%. It also gave a cell viability ([6]; 10000 nM) of 101%, a cell viability ([7]; 1 nM) of 96.2% and a cell viability ([7]; 10 nM) of 97.4%. It also gave a cell viability ([7]; 100 nM) of 93.4%, a cell viability ([7]; 1000 nM) of 94.6% and a cell viability ([7]; 10000 nM) of 96.6%. For the same compound, the cell viability ([8]; 1 nM) was 98.4%, the cell viability ([8]; 10 nM) was 99.2% and the cell viability ([8]; 100 nM) was 96.9%. For the same compound, the cell viability ([8]; 1000 nM) was 101%, the cell viability ([8]; 10000 nM) was 97.1% and the cell viability ([9]; 1 nM) was 81.9%. It also gave a cell viability ([9]; 10 nM) of 106%, a cell viability ([9]; 100 nM) of 104% and a cell viability ([9]; 1000 nM) of 86.3%. The cell viability ([9]; 10000 nM) was 96.8%, the cell viability ([10]; 1 nM) was 111% and the cell viability ([10]; 10 nM) was 103%. For the same compound, the cell viability ([10]; 100 nM) was 98.2%, the cell viability ([10]; 1000 nM) was 108% and the cell viability ([10]; 10000 nM) was 107%. For the same compound, the “relative viability EC50” value [11] was over 10 µM, the “relative viability EC50” value [12] was over 10 µM and the “relative viability EC50” value [13] was over 10 µM. The “relative viability EC50” value [14] was over 10 µM and the “relative viability EC50” value [15] was over 10 µM.

From the supplement of paper PMC13380429
